Results as given in PMC3254698 (Bioorganic & medicinal chemistry letters, 2008).

Target: presenilin-1 (Homo sapiens, UniProt P49768)
Assay type: biochemical

CC(C)C[C@H](NC(=O)[C@H](Cc1ccccc1)C[C@@H](O)[C@H](Cc1ccc(C(=O)c2ccccc2)cc1)NC(=O)OC(C)(C)C)C(=O)N[C@@H](Cc1ccccc1)C(=O)NCCCCCNC(=O)CCCC[C@@H]1SC[C@@H]2NC(=O)N[C@@H]21 [compound 3]
IC50: 600 pM
